Broadly, the inhibition is the drop in the measured response relative to a control, in per cent. High values mean strong suppression, low ones little suppression. The term IC50 denotes the concentration at which inhibition is half-maximal. A high value points to a need for much substance.

This is an account of results in ChEMBL document CHEMBL1146987, “Ketopiperazine-based renin inhibitors: optimization of the "C" ring” (Bioorg Med Chem Lett, 2006).

Each structure is given as a SMILES string.

The target in one data set is CYP3A4 (Homo sapiens, UniProt P08684). The data set is described as follows: Inhibition of CYP3A4 at 3 uM. It is filed as ADME.
CYP3A4, sequence (P08684 whole entry): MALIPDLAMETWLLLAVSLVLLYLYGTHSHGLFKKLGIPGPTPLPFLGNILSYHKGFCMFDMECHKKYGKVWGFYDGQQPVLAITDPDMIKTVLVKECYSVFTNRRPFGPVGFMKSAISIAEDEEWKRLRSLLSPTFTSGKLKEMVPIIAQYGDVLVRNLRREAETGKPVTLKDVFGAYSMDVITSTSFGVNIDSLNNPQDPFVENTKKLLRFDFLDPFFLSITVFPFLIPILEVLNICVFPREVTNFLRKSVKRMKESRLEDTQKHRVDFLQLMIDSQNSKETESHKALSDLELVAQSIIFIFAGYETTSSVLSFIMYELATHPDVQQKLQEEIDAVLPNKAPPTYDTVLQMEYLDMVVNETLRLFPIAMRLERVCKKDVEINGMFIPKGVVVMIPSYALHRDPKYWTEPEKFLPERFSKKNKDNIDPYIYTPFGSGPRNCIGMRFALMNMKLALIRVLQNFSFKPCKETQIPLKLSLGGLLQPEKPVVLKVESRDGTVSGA
Another data set addresses Cytochrome P450 3A4 (Homo sapiens, UniProt P08684). Kind of data set: Inhibition of CYP3A4 using BFC fluorogenic substrate. Format: ADME.
The target of another data set is T1, Renin (Homo sapiens, UniProt P00797).
T1 sequence (P00797 whole entry): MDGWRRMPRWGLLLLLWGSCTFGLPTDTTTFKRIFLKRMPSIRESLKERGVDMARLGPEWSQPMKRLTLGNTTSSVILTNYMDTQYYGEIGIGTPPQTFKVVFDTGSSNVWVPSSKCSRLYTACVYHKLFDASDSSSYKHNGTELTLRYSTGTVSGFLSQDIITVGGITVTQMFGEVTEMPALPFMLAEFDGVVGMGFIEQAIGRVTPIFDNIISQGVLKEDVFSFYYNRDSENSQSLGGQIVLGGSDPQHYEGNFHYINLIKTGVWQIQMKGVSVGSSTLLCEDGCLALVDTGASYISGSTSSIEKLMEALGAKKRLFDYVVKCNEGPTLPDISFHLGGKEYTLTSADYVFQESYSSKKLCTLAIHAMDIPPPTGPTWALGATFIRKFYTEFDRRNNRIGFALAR
Kind of data set: Inhibition of renin.

Cytochrome P450 3A4, sequence (P08684 whole entry): as the sequence (P08684 whole entry) above

On CYP3A4, `COc1ccccc1COCCCOc1ccc(N2C(=O)CNC[C@@H]2COc2ccc3c(c2)N(CCNC(C)=O)CCC3)cc1` had an inhibition at 3 µM of 92%. Besides, the IC50 was 82 nM against Cytochrome P450 3A4 and 0.29 nM against Renin.
Molecule `COCCCN1C(=O)COc2ccc(OC[C@H]3CNCC(=O)N3c3ccc(OCCCOCc4ccccc4OC)cc3)cc21` showed an inhibition at 3 µM against CYP3A4 of 95%. The molecule further gave an IC50 on Renin of 0.68 nM.
Regarding `COc1ccccc1COCCCOc1ccc(N2C(=O)CNC[C@@H]2COc2ccc3c(c2)N(CCN(C)C(C)=O)CCC3)cc1`, the 50% inhibitory concentration (IC50) at Cytochrome P450 3A4 is 18 nM; at Renin, 4 nM.
The like results for `COc1ccccc1COCCCOc1ccc(N2C(=O)CNC[C@@H]2COc2ccc3c(c2)N(CCC(=O)O)CCC3)cc1` were, in that order, 10000 nM and 450 nM.
As for `COCCCN1C(=O)CCc2ccc(OC[C@H]3CNCC(=O)N3c3ccc(OCCCOCc4ccccc4OC)cc3)cc21`, at CYP3A4, 3 µM produced 92% inhibition. On Cytochrome P450 3A4, this molecule came in with an IC50 of 35 nM.
For `CCC(=O)OCCN1CCCc2ccc(OC[C@H]3CNCC(=O)N3c3ccc(OCCCOCc4ccccc4OC)cc3)cc21`, the inhibition at 3 µM at CYP3A4 is 96%.
`COc1ccccc1COCCCOc1ccc(N2C(=O)CNC[C@@H]2COc2ccc3c(c2)N(CCCO)CCC3)cc1` showed an inhibition at 3 µM against CYP3A4 of 71%. This molecule returned an IC50 at Cytochrome P450 3A4 of 455 nM.
For `COc1ccccc1COCCCOc1ccc(N2C(=O)CNC[C@@H]2COc2ccc3c(c2)N(CC(=O)O)C(=O)CO3)cc1`, the IC50 on Cytochrome P450 3A4 was 25000 nM; against Renin it was 364 nM.
Molecule `COCCCN1CCCc2ccc(OC[C@H]3CNCC(=O)N3c3ccc(OCCCOCc4ccccc4OC)cc3)cc21` yielded an inhibition at 3 µM against CYP3A4 of 96%. 12 nM corresponded to half-maximal inhibition against Cytochrome P450 3A4 (IC50).
On to `COc1ccccc1COCCCOc1ccc(N2C(=O)CNC[C@@H]2COc2ccc3c(c2)N(CCN2CCCC2=O)CCC3)cc1`, for which the IC50 was 42 nM at Cytochrome P450 3A4 and 606 nM against Renin.
The molecule `COc1ccccc1COCCCOc1ccc(N2C(=O)CNC[C@@H]2COc2ccc3c(c2)N(CCOC(C)=O)CCC3)cc1` displayed an inhibition at 3 µM against CYP3A4 of 87%.
`COc1ccccc1COCCCOc1ccc(N2C(=O)CNC[C@@H]2COc2ccc3c(c2)N(CCOC(=O)C(C)C)CCC3)cc1`: at CYP3A4, the inhibition at 3 µM is 92%. The IC50 was found to be 54 nM against Cytochrome P450 3A4 and 550 nM on Renin.
As to `COc1ccccc1COCCCOc1ccc(N2C(=O)CNC[C@@H]2COc2ccc3c(c2)N(CCN2CCOC2=O)CCC3)cc1`, the values for the half-maximal inhibitory concentration (IC50) against Cytochrome P450 3A4 and against Renin were 3790 nM and greater than 1000 nM, respectively.
Turning to `COc1ccccc1COCCCOc1ccc(N2C(=O)CNC[C@@H]2CSc2ccc3c(c2)N(CC(=O)O)C(=O)CO3)cc1`, the half-inhibitory concentration (IC50) at Cytochrome P450 3A4 was determined as 15000 nM; against Renin it was 1200 nM.
For the molecule `COCCCN1C(=O)COc2ccc(SC[C@H]3CNCC(=O)N3c3ccc(OCCCOCc4ccccc4OC)cc3)cc21`, at CYP3A4, the inhibition at 3 µM is 95%. Besides, the IC50 at Cytochrome P450 3A4 turned out to be 14 nM.
